Measured values: patent US7589123B2, “Chemical compounds” (Phytopharm PLC, priority 2006, dated 2009)

Assays:
[1] = system: 5-HT-induced contractions in guinea pig ileum; assay: Inhibition of 5-HT-induced contractions in guinea pig ileum (Assay 3); conditions: Cavia porcellus, 5-HT 2.6 μM, read-out: Inhibition of 5-HT-induced contraction (%)
Experimental: (§1) Duncan Hartley derived male guinea pigs (325±25 g) were suppressed by CO2 overexposure, the abdominal cavity was exposed and ileal segments were removed. Small strips of ileum were suspended in organ baths containing Krebs solution (composition in g/l: NaCl 6.89, KCl 0.35, CaCl2 0.277, KH2PO4 0.163, MgSO4.7H2O 0.296, NaHCO3 2.1 glucose 1.8). The solution was kept at 32° C. and gassed with O2 (95%)-CO2 (5%) to maintain pH at 7.4. Mechanical activity was recorded by means of isotonic transducers. A resting tension of 1 g was applied to muscle strips before being equilibrated for 1 h, prior to test compound addition. Each preparation was washed twice at 15 min intervals during the equilibration.
(§2) Histamine (1.7 μM; approximately EC60-70) or 5-hydroxytryptamine (5-HT, 2.6 μM; approximately EC60-70) was applied for 5 min and the amplitude of the contraction recorded. The histamine or 5-HT was then washed out until the ileal tissue returned to baseline. Five min after returning to baseline test compound (3 and 30 μM) was applied and the amplitude of the contraction (if any) was recorded. In the continuous presence of test compound, histamine or 5-HT was re-applied and the inhibition of the response was recorded.

[2] = system: IL-1α-induced PGE2 release; assay: IL-1α-induced PGE2 release in human diploid lung fibroblasts (WI-38) (Assay 5); type: cell-based; conditions: Homo sapiens, WI-38 cells, IL-1α 1 nM, overnight
Experimental: (§3) Human diploid lung fibroblasts (WI-38 cells) were incubated overnight in the presence of IL-1α (1 nM) and test compound (3 and 30 μM) in modified Eagle medium at pH 7.3 containing foetal bovine serum (10%) at 37° C. The supernatant was assayed by radioimmunoassay for released PGE2 and the inhibition of PGE2 by test compound calculated (Table 10). The viability of the cells was then assessed by washing with Roswell Park Memorial Institute medium and adding Alamar Blue reagent before being incubated at 37° C. for 4 h. Living cells take up Alamar Blue and emit fluorescence when excited. Fluorescence intensity was measured using a SpectroFluor Plus plate reader with excitation at 530 nm and emission at 590 nm (Table 10).

TRPV1 receptor = TRPV1 receptor (Rattus norvegicus, UniProt O35433); assay: TRPV1 modulation in DRG neurones: CGRP release in absence and presence of capsaicin (Assay 2); type: cell-based; parameters: The culture used for this experiment contained sensory neurones, Schwann cells and fibroblasts; endogenous in cells; host or cells: primary rat DRG sensory neurone culture (with Schwann cells and fibroblasts); conditions: 20 min; for inhibition at 3 µM: 3 μM with capsaicin 1 μM; for Emax at 3 µM: test compound alone 3 μM; for Emax at 3 µM / Emax at 30 µM: rat DRG sensory neurones, read-out: CGRP release (% of capsaicin (1 μM) response); for Emax at 30 µM: test compound alone 30 μM
Chain of TRPV1 receptor (O35433 whole entry): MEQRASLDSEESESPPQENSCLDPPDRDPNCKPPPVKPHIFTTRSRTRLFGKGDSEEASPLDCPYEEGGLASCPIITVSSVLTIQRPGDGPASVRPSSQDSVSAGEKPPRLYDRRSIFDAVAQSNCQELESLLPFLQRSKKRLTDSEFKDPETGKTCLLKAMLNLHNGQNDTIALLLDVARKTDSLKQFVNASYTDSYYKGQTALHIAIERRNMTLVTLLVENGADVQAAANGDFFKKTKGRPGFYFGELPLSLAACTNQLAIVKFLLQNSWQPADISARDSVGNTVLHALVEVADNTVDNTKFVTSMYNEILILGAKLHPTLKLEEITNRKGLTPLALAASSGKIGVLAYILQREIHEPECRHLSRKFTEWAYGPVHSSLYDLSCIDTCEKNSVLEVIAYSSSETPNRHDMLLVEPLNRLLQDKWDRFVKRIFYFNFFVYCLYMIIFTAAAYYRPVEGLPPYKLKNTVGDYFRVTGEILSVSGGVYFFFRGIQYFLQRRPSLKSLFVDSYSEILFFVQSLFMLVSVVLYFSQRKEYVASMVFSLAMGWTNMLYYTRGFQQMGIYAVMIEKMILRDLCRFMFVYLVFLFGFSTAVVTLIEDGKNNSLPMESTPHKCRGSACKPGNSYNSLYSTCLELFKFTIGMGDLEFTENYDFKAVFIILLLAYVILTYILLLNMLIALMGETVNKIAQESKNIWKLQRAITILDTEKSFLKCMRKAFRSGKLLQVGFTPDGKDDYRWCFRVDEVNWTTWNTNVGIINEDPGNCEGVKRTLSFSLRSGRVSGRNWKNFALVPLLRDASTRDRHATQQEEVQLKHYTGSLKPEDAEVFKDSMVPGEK

WI-38 cells = assay: Viability of WI-38 cells, Alamar Blue (Assay 5); type: cell-based, human
Experimental: as §3

[3] = system: histamine-induced contractions in guinea pig ileum; assay: Inhibition of histamine-induced contractions in guinea pig ileum (Assay 3); conditions: Cavia porcellus, histamine 1.7 μM, read-out: Inhibition of histamine-induced contraction (%)
Experimental: as §1, §2

5-lipoxygenase = biological target: T1, 5-lipoxygenase (Homo sapiens, UniProt P09917); assay: 5-lipoxygenase activity (LTB4) in human peripheral blood mononuclear leukocytes (Assay 6); type: cell-based; conditions: human PBMLs, A23187 30 μM, read-out: Inhibition of 5-LO (%)
T1 construct: endogenous in cells; host or cells: human peripheral blood mononuclear leukocytes (PBMLs)
T1 sequence (P09917 1-674): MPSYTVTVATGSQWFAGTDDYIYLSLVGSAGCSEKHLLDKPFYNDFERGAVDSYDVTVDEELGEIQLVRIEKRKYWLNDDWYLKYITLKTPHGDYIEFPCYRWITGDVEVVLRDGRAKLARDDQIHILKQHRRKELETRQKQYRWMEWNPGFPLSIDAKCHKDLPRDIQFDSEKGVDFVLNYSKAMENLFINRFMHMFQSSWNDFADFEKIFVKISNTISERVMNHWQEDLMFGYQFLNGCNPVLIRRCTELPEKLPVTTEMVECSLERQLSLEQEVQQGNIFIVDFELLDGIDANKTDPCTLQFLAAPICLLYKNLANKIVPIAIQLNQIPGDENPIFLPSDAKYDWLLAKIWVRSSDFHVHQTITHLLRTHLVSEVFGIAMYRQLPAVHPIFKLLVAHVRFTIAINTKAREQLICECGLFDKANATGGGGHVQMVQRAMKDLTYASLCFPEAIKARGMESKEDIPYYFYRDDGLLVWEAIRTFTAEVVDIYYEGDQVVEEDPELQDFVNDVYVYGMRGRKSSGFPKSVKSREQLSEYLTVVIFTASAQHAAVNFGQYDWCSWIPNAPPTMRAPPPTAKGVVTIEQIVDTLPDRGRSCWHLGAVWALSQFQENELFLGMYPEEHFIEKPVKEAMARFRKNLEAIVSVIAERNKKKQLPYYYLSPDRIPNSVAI
Experimental: Human peripheral blood mononuclear leukocytes (PBMLs) were isolated using a Ficoll-Paque density gradient. Human peripheral blood mononuclear leukocytes (5×10^6 cells) were incubated with A23187 (30 μM), a divalent cation ionophore used to initiate the biosynthesis of […], and with vehicle (0.1% DMSO) or test compound (3 and 30 μM) in Hank's balanced salt solution (HBBS) buffer, pH 7.4 at 37° C. for 15 min. The PBML solution was neutralized with NaOH (1 N) and centrifuged at 1000 g for 10 min and the supernatant collected. The concentration of leukotriene B4 (LTB4) in the supernatant was measured using an enzyme immunoassay kit (Assay Design Inc.). A reduction in the concentration of LTB4 indicated an inhibition of the enzyme 5-lipoxygenase (Table 11).

[4] = system: α-smooth muscle actin (α-SMA) mRNA; assay: Anti-remodelling activity in human lung fibroblasts (HFL1): TGFβ-induced α-SMA mRNA (Assay 4); type: cell-based; conditions: Homo sapiens, HFL1 cells, TGFβ 10 ng/ml, 24 h, read-out: Inhibition of α-SMA mRNA synthesis (%)
Experimental: A human foetal lung fibroblast cell line (HFL1 cells; ATCC accession number CCl-153) was used in this assay. The cells were cultured in medium containing a low level of foetal bovine serum (FBS; 0.1%) for 24 h. After 24 h of culturing the medium was changed to: (a) Control medium (medium containing 10% FBS, 1% phosphate saline and 0.5 mM L-glutamine), (b) Control medium and transforming growth factor beta (TGFβ; 10 ng/ml), (c) Control medium and TGFβ and test compounds (3 and 30 μM). The medium was collected after 24 h and the total mRNA extracted in Tri-reagent. The level of mRNA coding for α-smooth muscle actin (α-SMA) was assessed by real-time reverse transcription-polymerase chain reaction (rtRT-PCR) using primer couples that allow the amplification of α-SMA mRNA. Liver glyceraldehydes 3-phosphate dehydrogenase (GADPH) was used as a reference marker in this experiment. The inhibition of the TGTβ-induced overexpression of α-SMA mRNA by the test compounds was quantified.

[5] = −ve: inhibition, +ve: potentiation of capsaicin response, read-out: Effect of test compounds on capsaicin (1 μM)-induced CGRP release (%)
[6] = 30 μM with capsaicin 1 μM, −ve: inhibition, +ve: potentiation of capsaicin response, read-out: Effect of test compounds on capsaicin (1 μM)-induced CGRP release (%)

| SMILES | inhibition at 3 µM [1] | inhibition at 30 µM [1] | inhibition at 3 µM [2] | inhibition at 30 µM [2] | inhibition at 3 µM (TRPV1 receptor; [5]) | inhibition at 30 µM (TRPV1 receptor; [6]) | Emax at 3 µM (TRPV1 receptor) | Emax at 30 µM (TRPV1 receptor) | Decrease in cell viability (%) (WI-38 cells; 3 μM) | Decrease in cell viability (%) (WI-38 cells; 30 μM) | inhibition at 3 µM [3] | inhibition at 30 µM [3] | inhibition at 3 µM (5-lipoxygenase) | inhibition at 30 µM (5-lipoxygenase) | inhibition at 3 µM [4] | inhibition at 30 µM [4] | percent change in capsaicin-induced CGRP release (negative = inhibition, positive = potentiation) at 30 µM (TRPV1 receptor; [6]) |
| --- | --- | --- | --- | --- | --- | --- | --- | --- | --- | --- | --- | --- | --- | --- | --- | --- | --- |
| COc1cc(CCC(=O)CC(=O)c2cccc3ccccc23)ccc1O [Compound 27, 5-(4-Hydroxy-3-methoxylphenyl)-1-(naphthalene-1-yl)-pentane-1,3-dione] | 1% | 63% | 92% | 99% | 46% | -66% | 85% | 162% | 4% | 40% | 2% | 68% | 92% | 98% | 6% | 79% |  |
| COc1cc(CCC(=O)C(C)C(=O)c2ccc(C)cc2)ccc1O (stereo not shown) [Compound 14, 5-(4-Hydroxy-3-methoxylphenyl)-2-methyl-1-p-tolyl-pentane-1,3-dione] | 10% | 74% | 77% | 101% | -12% | 35% | 120% | 94% | 5% | −4% | 10% | 54% | 57% | 96% | 11% | 17% |  |
| COc1ccc(C(=O)C(C)C(=O)CCc2ccc(O)c(OC)c2)cc1 (stereo not shown) [Compound 17, 5-(4-Hydroxy-3-methoxyphenyl)-1-(4-methoxyphenyl)-2-methyl-pentane-1,3-dione] | 6% | 42% | 58% | 98% | -98% | -22% | 55% | 183% | −1% | 4% | 3% | 29% | 51% | 95% | -1% | 31% |  |
| COc1cc(CCC(=O)C(C)C(=O)c2ccc(O)c(OC)c2)ccc1O (stereo not shown) [Compound 16, 1,5-Bis(4-hydroxy-3-methoxyphenyl)-2-methyl-pentane-1,3-dione] | 0% | 28% | 32% | 83% | -49% | -49% | 53% | 52% | 10% | −9% | 4% | 22% | 20% | 73% | -8% | 10% |  |
| COc1cc(CCC(=O)CC(=O)c2ccc(C(C)(C)C)cc2)ccc1O [Compound 83, 1-(4-tert-Butylphenyl)-5-(4-hydroxy-3-methoxyphenyl)pentane-1,3-dione] | 4% | 11% | 86% | 102% | 11% |  | 66% | 144% | 4% | 31% | 16% | 17% | 52% | 99% | -2% | 86% | 0% |
| COc1cc(CCC(=O)CC(=O)c2ccc(Cl)cc2)ccc1O [Compound 21, 1-(4-Chlorophenyl)-5-(4-hydroxy-3-methoxyphenyl)pentane-1,3-dione] | 9% | 49% | 88% | 99% | 6% | -56% | 50% | 150% | 3% | 11% | 9% | 68% | 68% | 98% | 6% | 54% |  |
| COc1cc(CCC(=O)CC(=O)c2ccc(F)cc2)ccc1O [Compound 20, 1-(4-Fluorophenyl)-5-(4-hydroxy-3-methoxyphenyl)-pentane-1,3-dione] | 2% | 74% | 87% | 99% | 29% | 4% | 46% | 96% | 3% | 10% | 0% | 22% | 58% | 98% | -8% | 11% |  |
